The source of these data is US6475996B1, “Use of a vector expressing DNA polymerase β as medicine” (Centre National De La Recherche Scientifique (CNRS), priority 1996, dated 2002).

In assay [1] the test system is E. coli SC 18-12. Briefly: Functionality check of pZHTkβ: survival of E. coli SC 18-12. It is filed as cell-based. The settings on record: Zeocine 25 μg/ml. The source says: The functionality of the construct was checked using E. coli bacterial strains,
1—either by transforming the strain SC 18-12 for the expression of pol β,

The target of assay [2] is DNA polymerase β (Homo sapiens, UniProt P06746). The settings on record: in vitro, compared with dCMP (Copeland et al., 1992); cited from earlier work.
Assay [3] has as its target T1, pol β (Rattus norvegicus, UniProt P06766).
T1 construct: expressed in transfected cells; host or cells: B16 mouse melanoma cells transfected with pUT-pol β; cell extracts
The assay can be described thus: DNA replication test with extracts of pol β-transfected B16 cells. Type of assay: biochemical. To be noted: extracts of B16 cells transfected with pUT-pol β.

As to `Cc1c(N)nc([C@H](CC(N)=O)NC[C@H](N)C(N)=O)nc1C(=O)N[C@H](C(=O)N[C@H](C)[C@@H](O)[C@H](C)C(=O)N[C@H](C(=O)NCCC1=N[C@@H](c2nc(C(=O)NCCCCN=C(N)N)cs2)CS1)[C@@H](C)O)[C@@H](O[C@@H]1O[C@@H](CO)[C@@H](O)[C@H](O)[C@@H]1O[C@H]1O[C@H](CO)[C@@H](O)[C@H](OC(N)=O)[C@@H]1O)c1cnc[nH]1` [Zeocine], the “Survival (%)” value in assay [1] (SC 18-12/pZHTkβ) was 97%; in assay [1] (SC 18-12 non-transformed), 5%.

Consider `Nc1ccn([C@H]2CC[C@@H](COP(=O)(O)O)O2)c(=O)n1` [ddCMP], for which, in assay [2], the “Efficacy of incorporation by DNA polymerase β” value was “comparable to that observed for the incorporation of the natural antagonist dCMP”.

For the compound `Nc1ccn([C@H]2CC[C@@H](COP(=O)(O)OP(=O)(O)OP(=O)(O)O)O2)c(=O)n1` [triphosphorylated ddC], the “In vitro incorporation into the G-rich nucleotide substrate” value in assay [3] is recorded as “allowed an in vitro incorporation”.
